The structures appear in SMILES notation.

One data set can be described thus: in vivo. The conditions noted are these: rat, in vivo, ip; 5 days; hydrochloride salts; range in parentheses; read-out: DL50 i.p. An excerpt:
(§1) The behavior of the animals has then been followed for a period of five days. The DL50 has been determined according to the method of I. T. Litchfield and F. Wilcoxon, (J. Pharmacol. Exper. Ther., 96, 99, 1949). The compound numbers in Table II correspond to the numbers in Table I.

A further data set concerns Swiss rats. In words: in vivo. The conditions noted are these: lidocaine = 1.
Text: as §1

Another data set relates to corneal reflux. In words: Surface anaesthesia (corneal reflux, conjunctival sac). The conditions noted are these: for Surface anaesthesia DL50/CE50: analogous to therapeutic index, DL50 i.p.; for Surface anaesthesia CE50: concentration in percent achieving 50% of total responses, pH 7 saline, hydrochloride salts; for Surface anaesthesia activity with respect to lidocaine: lidocaine = 1. Here is the method:
(§2) The data reported hereinbelow relate in every instance to the hydrochloride salts of the individual compounds.
The surface anaesthesia has been determined in rabbits according to the method of M. R. A. Change and H. Lobstein (J. Pharmacol. Exper. Ther., 82, 203, 1944). The compounds dissolved in physiological saline solution of pH 7 were injected into the conjunctival sac and the corneal reflux was induced with the brush of Frey six times at intervals of five minutes for a total period of 40 minutes.

Data set [1] concerns response to skin puncture. Put plainly: Anaesthesia by infiltration (subcutaneous, back puncture). In kind it is in vivo, guinea pigs. The conditions noted are these: for Infiltration anaesthesia DL50/CE50: analogous to therapeutic index, DL50 i.p.; for Infiltration anaesthesia CE50: concentration in percent achieving 50% of total responses, hydrochloride salts; for Infiltration anaesthesia DL50/CE50 relative to lidocaine / Infiltration anaesthesia activity with respect to lidocaine: lidocaine = 1. Here is the method:
The anaesthesia by infiltration has been determined in guinea pigs according to the method of E. Bulbring and I. Wajda, (Journal of Pharmacol. Exper. Ther. 85, 78, 1945). In each experiment, four doses of the substance in 0.25 cc of physiological saline solution is injected subcutaneously on the back after removal of hair. After five minutes, each animal is punctured six times at intervals of […].
The test was repeated every five minutes for a period of 30 minutes. The extent of anaesthesia by infiltration was measured quantitatively by determining the sum of the instances in which the animal remained immobile during the thirty minute period on 36 possible blinks.

For data set [2], the system named is reflux of contraction of the lower limbs (lumbar plexus). In words: Anaesthesia by conduction (lumbar plexus). It counts as in vivo, frogs. The conditions noted are these: for Conduction anaesthesia DL50/t' / Conduction anaesthesia 1/t'max. (c = 1%) with respect to lidocaine: c = 1%; for Conduction anaesthesia DL50/t': DL50 i.p.; for Conduction anaesthesia 1/t'max. (c = 1%) with respect to lidocaine / Conduction anaesthesia DL50/t' relative to lidocaine: lidocaine = 1. The text has this: Anaesthesia by conduction has been determined on frogs according to the method of E. Bulbring and I. Wajda (Journal Pharmacol. Exper. Ther., 85, 78, 1945). The compounds dissolved in physiological saline solution are introduced into the cavity obtained by a transversal incision in the abdomen and separating the viscera in order to expose the lumbar plexus. The period of time necessary to eliminate the reflux of contraction of the lower limbs stimulated by immersion of both posterior legs into hydrochloric acid of increasing concentration between 0.05-0.1-0.2 N for a period not in excess of ten seconds, at intervals of one minute is determined. The extent of anaesthesia of conduction has been determined by measuring the period of time required for each compound in three different concentrations, 0.2%-0.5%-1.0% in order to abolish the reflex of contraction with the concentration of hydrochloric acid indicated hereinabove.

The test system of data set [3] is aconitine-induced ventricular arrhythmia. In words: Anti-arrhythmic activity, aconitine infusion. In kind it is in vivo, Wistar rats. The conditions noted are these: for Aconitine i.v. necessary to induce ventricular arrhythmia: 3 min before aconitine 10 mcg/kg/min; for Anti-arrhythmic activity compared with lidocaine: times more active than lidocaine; for Anti-arrhythmic activity compared with quinidine: times more active than quinidine. Here is the method:
as §2
This determination has been made in Wistar rats, anaesthetized with ethylurethane, (1 g/kg i.p.), according to the method of B. Vargaftig and J. L. Coigner (European Journal Pharmacology, 6, 49, 1969). The compounds dissolved in physiological saline solution, are injected intravenously three minutes prior to the infusion of aconitine, (10 mcg/kg/min.). The extent of anti-arrhythmic activity is determined quantitatively by determining the amount of aconitine necessary to induce ventricular arrhythmia.

Regarding `CCN(CC)Cc1ccccc1C(=O)Nc1c(C)cccc1C(=O)OC` [Compound 14], the LD50 at 120 h in “in vivo” was 24.7 mg/kg. For the same molecule, the “DL50 i.p. relative to lidocaine” value with Swiss rats turned out to be 0.17. In the data set on corneal reflux, the “Surface anaesthesia DL50/CE50” value was 60, the “Surface anaesthesia CE50” value was determined as 0.41% and the “Surface anaesthesia activity with respect to lidocaine” value (shortened to “Surface anaesthesia activity”) was found to be 5.61. In data set [1], the “Infiltration anaesthesia DL50/CE50” value amounted to 57, the “Infiltration anaesthesia CE50” value is given as 0.43%, the “Infiltration anaesthesia DL50/CE50 relative to lidocaine” value worked out at 0.30 and the “Infiltration anaesthesia activity with respect to lidocaine” value (“Infiltration anaesthesia activity” below) was determined as 1.74. Also, in data set [2], the “Conduction anaesthesia DL50/t'” value was 5, the “Conduction anaesthesia 1/t'max. (c = 1%) with respect to lidocaine” value (shortened to “Conduction anaesthesia 1/t'max. (c = 1%)”) was 2.2 and the “Conduction anaesthesia DL50/t' relative to lidocaine” value was 0.38. Further, the “Aconitine i.v. necessary to induce ventricular arrhythmia” value (“Aconitine i.v. necessary” below) in data set [3] (0.6 mg/kg i.v.) is 45 ± 8 µg/kg. Besides, the “Aconitine i.v. necessary” value in data set [3] (1.0 mg/kg i.v.) was 60 ± 7 µg/kg. In data set [3] (3.0 mg/kg i.v.), the “Aconitine i.v. necessary” value was found to be 81 ± 7 µg/kg. Also, in data set [3], the “Anti-arrhythmic activity compared with lidocaine” value is “at least twenty times more active than lidocaine” and the “Anti-arrhythmic activity compared with quinidine” value is given as “at least ten times more active than quinidine”.

Regarding `CCN(CC)Cc1ccccc1C(=O)Nc1c(C)cccc1Cl` [Compound 13], the LD50 at 120 h in the data set “in vivo” amounted to 16.3 mg/kg. Besides, in the data set with Swiss rats, the “DL50 i.p. relative to lidocaine” value is 0.11. Also, in the data set with corneal reflux, the “Surface anaesthesia DL50/CE50” value turned out to be 27, the “Surface anaesthesia CE50” value is reported as 0.60% and the “Surface anaesthesia activity” value came to 3.83. Also, in data set [1], the “Infiltration anaesthesia DL50/CE50” value is on record as 58, the “Infiltration anaesthesia CE50” value amounted to 0.28%, the “Infiltration anaesthesia DL50/CE50 relative to lidocaine” value was 0.31 and the “Infiltration anaesthesia activity” value stood at 2.68. In addition, in data set [2], the “Conduction anaesthesia DL50/t'” value was 16, the “Conduction anaesthesia 1/t'max. (c = 1%)” value stood at 11.1 and the “Conduction anaesthesia DL50/t' relative to lidocaine” value is 1.23. Further, the “Aconitine i.v. necessary” value in data set [3] (0.6 mg/kg i.v.) came to 48 ± 6 µg/kg. Also, the “Aconitine i.v. necessary” value in data set [3] (1.0 mg/kg i.v.) turned out to be 65 ± 7 µg/kg. In data set [3] (3.0 mg/kg i.v.), the “Aconitine i.v. necessary” value worked out at 67 ± 7 µg/kg. Besides, in data set [3], the “Anti-arrhythmic activity compared with lidocaine” value is “at least twenty times more active than lidocaine” and the “Anti-arrhythmic activity compared with quinidine” value is listed as “at least ten times more active than quinidine”.

Turning to `CCN(CC)Cc1cccc(C(=O)Nc2c(C)cccc2C)c1` [Compound 2], the LD50 at 120 h in the data set “in vivo” worked out at 67 mg/kg. In addition, in the data set on Swiss rats, the “DL50 i.p. relative to lidocaine” value is given as 0.47. Moreover, in the data set with corneal reflux, the “Surface anaesthesia DL50/CE50” value was found to be 163, the “Surface anaesthesia CE50” value was 0.41% and the “Surface anaesthesia activity” value was found to be 5.60. Further, in data set [1], the “Infiltration anaesthesia DL50/CE50” value is 291, the “Infiltration anaesthesia CE50” value is 0.23%, the “Infiltration anaesthesia DL50/CE50 relative to lidocaine” value came out at 1.54 and the “Infiltration anaesthesia activity” value worked out at 3.26. Besides, in data set [2], the “Conduction anaesthesia DL50/t'” value worked out at 67, the “Conduction anaesthesia 1/t'max. (c = 1%)” value was determined as 11.1 and the “Conduction anaesthesia DL50/t' relative to lidocaine” value was 5.15. In addition, in data set [3] (1.0 mg/kg i.v.), the “Aconitine i.v. necessary” value turned out to be 43 ± 8 µg/kg. In data set [3] (3.0 mg/kg i.v.), the “Aconitine i.v. necessary” value stood at 77 ± 9 µg/kg. Moreover, in data set [3] (6.0 mg/kg i.v.), the “Aconitine i.v. necessary” value came out at 82 ± 9 µg/kg.

On to `CCN(CC)Cc1ccc(C(=O)Nc2c(C)cccc2C)cc1` [Compound 3], for which the LD50 at 120 h in “in vivo” came out at 82.5 mg/kg. The “DL50 i.p. relative to lidocaine” value with Swiss rats came to 0.58. In the data set with corneal reflux, the “Surface anaesthesia DL50/CE50” value is given as 17, the “Surface anaesthesia CE50” value came out at 4.78% and the “Surface anaesthesia activity” value was determined as 0.48. In data set [1], the “Infiltration anaesthesia DL50/CE50” value is listed as 10, the “Infiltration anaesthesia CE50” value is 8.02%, the “Infiltration anaesthesia DL50/CE50 relative to lidocaine” value is 0.05 and the “Infiltration anaesthesia activity” value turned out to be 0.09. In addition, in data set [2], the “Conduction anaesthesia DL50/t'” value worked out at 9, the “Conduction anaesthesia 1/t'max. (c = 1%)” value is recorded as 1.2 and the “Conduction anaesthesia DL50/t' relative to lidocaine” value stood at 0.69. For the same molecule, the “Aconitine i.v. necessary” value in data set [3] (1.0 mg/kg i.v.) is 38 ± 5 µg/kg. Besides, in data set [3] (3.0 mg/kg i.v.), the “Aconitine i.v. necessary” value is 39 ± 6 µg/kg. Further, the “Aconitine i.v. necessary” value in data set [3] (8.0 mg/kg i.v.) was 47 ± 7 µg/kg.

Take `CCN(CC)Cc1ccccc1C(=O)Nc1c(C)cccc1C` [Compound 1, 2,6-Dimethylanilide of 2-diethylaminomethylbenzoic acid]: the LD50 at 120 h in “in vivo” stood at 17.2 mg/kg. Also, in the data set on Swiss rats, the “DL50 i.p. relative to lidocaine” value was found to be 0.12. For the same molecule, in the data set with corneal reflux, the “Surface anaesthesia DL50/CE50” value was 34, the “Surface anaesthesia CE50” value was found to be 0.50% and the “Surface anaesthesia activity” value worked out at 4.60. Besides, in data set [1], the “Infiltration anaesthesia DL50/CE50” value was 69, the “Infiltration anaesthesia CE50” value is given as 0.25%, the “Infiltration anaesthesia DL50/CE50 relative to lidocaine” value was 0.36 and the “Infiltration anaesthesia activity” value is 3.00. Moreover, in data set [2], the “Conduction anaesthesia DL50/t'” value turned out to be 6, the “Conduction anaesthesia 1/t'max. (c = 1%)” value amounted to 3.6 and the “Conduction anaesthesia DL50/t' relative to lidocaine” value was determined as 0.46. Besides, in data set [3] (0.6 mg/kg i.v.), the “Aconitine i.v. necessary” value turned out to be 50 ± 5 µg/kg. The “Aconitine i.v. necessary” value in data set [3] (1.0 mg/kg i.v.) amounted to 67 ± 8 µg/kg. Moreover, the “Aconitine i.v. necessary” value in data set [3] (3.0 mg/kg i.v.) was determined as 69 ± 8 µg/kg. In addition, in data set [3], the “Anti-arrhythmic activity compared with lidocaine” value is “at least twenty times more active than lidocaine” and the “Anti-arrhythmic activity compared with quinidine” value was “at least ten times more active than quinidine”.

The values are drawn from patent US4305940A, “Benzamides with local anaesthetic and antiarrhythmic activity, salts, and method of preparation thereof and pharmaceutical compositions therefrom” (B.B.R. Boehringer Biochemia Robin S.p.A., priority 1979, dated 1981).
